A short description of series [1]: Phase I multiple ascending oral dose pharmacokinetics in healthy subjects (plasma, LC-MS/MS). In kind it is in vivo, human. The settings on record: for Ctau (trough plasma concentration at end of dosing interval) / Cmax / AUC / Tmax: healthy subjects; for Ctau (trough plasma concentration at end of dosing interval) / Cmax / AUC: geometric mean; for Cmax / AUC / Tmax: human, plasma, po; for Tmax: median. The procedure: As part of a Phase I, double-blind, placebo-controlled dose-ranging study, the pharmacokinetics of multiple ascending oral doses of Compound I·2 (HCl) were evaluated in healthy subjects. Four ascending dose cohorts were enrolled for dosing in a sequential manner. At the start, twelve subjects were randomized into each cohort for administration of a 7-day or 14-day course of study drug (n=10/cohort received Compound I·2 (HCl) and n=2/cohort received matching placebo) according to the following dose regimens: 125 mg Compound I·2 (HCl) or placebo once per day (QD) for 7 days in Cohort 1; 250 mg Compound I·2 (HCl) or placebo QD for 7 days in Cohort 2; 500 mg Compound I·2 (HCl) or placebo QD for 7 days in Cohort 3; […] Overall, 37 out of the 40 subjects receiving multiple doses of Compound I·2 (HCl) completed their respective dose regimens and were available for assessment of PK parameters at either Day 7 or Day 14.
Serial blood samples were drawn for pharmacokinetic analysis before dose administration on Day 7 or Day 14, and over the following 24 hours. The plasma samples for determination of Compound I·2 (HCl) concentrations were analyzed with the use of a validated LC-MS/MS (Liquid Chromatography with tandem mass spectrometry) bioanalytical assay.
Plasma Compound I·2 (HCl) concentration versus time profiles on Day 7 after QD oral administration of Compound I·2 (HCl) at 125, 250, and 500 mg QD, and on Day 14 after QD oral administration of Compound I·2 (HCl) at 350 mg QD, are shown in FIG. 3.
Table 1 provides a summary of plasma pharmacokinetic parameters [the maximum (peak) plasma drug concentration (Cmax), time (observed time point) to reach maximum (peak) plasma drug concentration following drug administration (Tmax), the observed trough plasma concentration at the end of the dosing interval (Ctau), and the area under the plasma concentration-time curve over the dosing interval (AUCtau)] following 7 or 14 days of multiple oral doses of Compound I·2 (HCl).

The subject of series [2] is hereditary angioedema (HAE). The settings on record: HAE patients; cited from earlier work.
Another series relates to arthritis. The settings on record: rat models of arthritis; cited from earlier work.
For series [3], the system named is lipopolysaccharide (LPS)- or bacterial-induced sepsis. The settings on record: LPS- or bacterial-induced sepsis in animals; cited from earlier work.
A further series deals with sepsis. The conditions noted are these: cited from earlier work.
Series [4] concerns middle cerebral artery occlusion (MCAO). The conditions noted are these: mouse MCAO model; cited from earlier work.
Where [5] appears, read: across the full 4-fold dose range (125 mg to 500 mg QD).
Setting [6] is: 125 mg, 125 mg QD oral, Day 7 (N = 10).
Setting [7] is: 350 mg, 350 mg QD oral, Day 14 (N = 9).
[8] abbreviates: 350 mg, third dose column, 350 mg QD, Day 7 (N = 9), oral.
Setting [9] is: 500 mg, second dose column, 500 mg QD, Day 7 (N = 9), oral.

Structures can show the parent of a compound that is named as a salt.

For the molecule `N#Cc1cccc([C@@H](NCC2CC2)c2ccc(F)c(NC(=O)c3cc(C(F)(F)F)nn3-c3cccc(CN)c3)c2)c1` [Compound I•2(HCl)], the “Ctau (trough plasma concentration at end of dosing interval)” value stood at 46.1 ng/mL in series [1] (125 mg QD oral, Day 7 (N = 10)) and 101 ng/mL in series [1] (second dose column, 500 mg QD, Day 7 (N = 9), oral). The “Increase in geometric mean AUCtau” value in series [1] (setting [5]) was 5.1 fold. In series [1] (setting [5]), the “Increase in geometric mean Cmax” value is 5.3 fold. The Cmax in series [1] (setting [6]) was 97.8 ng/mL; in series [1] (setting [7]), 363 ng/mL; in series [1] (setting [8]), 517 ng/mL; in series [1] (setting [9]), 217 ng/mL. For the same molecule, the AUC in series [1] (setting [6]) is 1600 ng·h/mL; in series [1] (setting [7]) it was 5720 ng·h/mL; in series [1] (setting [8]), 8230 ng·h/mL; in series [1] (setting [9]), 3710 ng·h/mL. Also, the results for the Tmax in series [1] (setting [6]) and in series [1] (setting [9]) were 5 h and 6 h, respectively. Also, in series [1] (increase from 125 mg to 250 mg QD and 250 mg to 500 mg QD), the “Dose proportionality of exposure” value is reported as “reasonable dose proportionality”.

For the molecule `NC(N)=NCCC[C@@H](N)C(=O)N[C@@H](CCCN=C(N)N)C(=O)N1CCC[C@H]1C(=O)N1C[C@H](O)C[C@H]1C(=O)NCC(=O)N[C@@H](Cc1cccs1)C(=O)N[C@@H](CO)C(=O)N1Cc2ccccc2C[C@@H]1C(=O)N1[C@H](C(=O)N[C@@H](CCCN=C(N)N)C(=O)O)C[C@@H]2CCCC[C@@H]21` [Icatibant], the “Efficacy in treating HAE” value in series [2] is reported as “effective in treating HAE”.

For `Cl.NCC1CCC(C(=O)N[C@@H](Cc2ccccc2)C(=O)Nc2ccc(CC(=O)O)cc2)CC1` (stereo partly drawn) [PKSI-527], the Joint swelling result with arthritis is listed as “reduce joint swelling”.

As to “H-D-Pro-Phe-Arg-chloromethylketone [H-D-Pro-Phe-Arg-chloromethylketone (CMK), reference compound]”, the “Vascular permeability in multiple organs and lesions” value in series [3] was “reduce vascular permeability in multiple organs and reduce lesions”.

B1: C1-inhibitor: physiological inhibitor of kallikrein in human plasma (protein, UniProt P05155 23-500, looked up)
Plasma protease C1 inhibitor: NPNATSSSSQDPESLQDRGEGKVATTVISKMLFVEPILEVSSLPTTNSTTNSATKITANTTDEPTTQPTTEPTTQPTIQPTQPTTQLPTDSPTQPTTGSFCPGPVTLCSDLESHSTEAVLGDALVDFSLKLYHAFSAMKKVETNMAFSPFSIASLLTQVLLGAGENTKTNLESILSYPKDFTCVHQALKGFTTKGVTSVSQIFHSPDLAIRDTFVNASRTLYSSSPRVLSNNSDANLELINTWVAKNTNNKISRLLDSLPSDTRLVLLNAIYLSAKWKTTFDPKKTRMEPFHFKNSVIKVPMMNSKKYPVAHFIDQTLKAKVGQLQLSHNLSLVILVPQNLKHRLEDMEQALSPSVFKAIMEKLEMSKFQPTLLTLPRIKVTTSQDMLSIMEKLEFFDFSYDLNLCGLTEDPDLQVSAMQHQTVLELTETGVEAAAASAISVARTLLVFEVQQPFLFVLWDQQHKFPVFMGRVYDPRA
Regarding B1, the “Vascular permeability in multiple organs and lesions” value in series [3] was “reduce vascular permeability in multiple organs and reduce lesions”. The “Clinical outcome in sepsis patients” value with sepsis is on record as “Clinical improvement”. Moreover, in series [4], the Infarct size entry is listed as “reduced infarct size”.

By Cmax is commonly meant the maximum level reached in the sampled fluid or tissue. As a reminder, the AUC is the area under the concentration-time curve, a measure of exposure. A higher AUC goes with high exposure. What is called Tmax is the time from dosing to the highest level.

Values taken from US12590069B2, “Crystalline salts of a plasma kallikrein inhibitor” (BioCryst Pharmaceuticals, Inc., priority 2018, dated 2026).
